Test results: ChEMBL document CHEMBL4130359, “Indazole-based ligands for estrogen-related receptor α as potential anti-diabetic agents” (Eur J Med Chem, 2017)

Assays:
[1] = Clearance in CD-1 mouse at 5 mg/kg, iv by LC-MS analysis; format: ADME, organism-based; details: in vivo
Rattus norvegicus [2] = test: Decrease in fed plasma triglyceride level in Zucker rat sub-chronic fa/fa prediabetic model assessed as change in plasma triglyceride level at 10 mg/kg, po qd for 4 days measured on day 5 relative to control; format: functional; set-up: scale not given: the % may be the effect or the level left
Rattus norvegicus [3] = test: Toxicity in […] model assessed as serum BUN level at 10 mg/kg, po qd for 31 days measured on day 32 (reference value: 28.3 +/- […]); format: organism-based; details: in vivo, 744 h
Rattus norvegicus [4] = test: Toxicity in Zucker rat sub-chronic fa/fa prediabetic model assessed as serum triglyceride level at 50 mg/kg, po qd for 31 days measured on day 32 (reference value: 1382 +/- 268 mg/dl); format: organism-based; details: in vivo, 744 h
Rattus norvegicus [5] = test: Effect on HADHB gene expression in epididymal white adipose tissue of Zucker rat sub-chronic fa/fa prediabetic model at 10 mg/kg, po qd for 15 days by microarray analysis relative to control; format: functional
Rattus norvegicus [6] = test: Effect on ECSIT gene expression in epididymal white adipose tissue of Zucker rat sub-chronic fa/fa prediabetic model at 10 mg/kg, po qd for 15 days by microarray analysis relative to control; format: functional
Rattus norvegicus [7] = test: Toxicity in […] model assessed as serum ALT level at 3 mg/kg, po qd for 31 days measured on day 32 (reference value: 127 +/- 9 U/L); format: organism-based; details: in vivo, 744 h
Rattus norvegicus [8] = test: Toxicity in Zucker rat sub-chronic fa/fa prediabetic model assessed as heart weight at 10 mg/kg, po qd for 31 days measured on day 32 (reference value: 1.19 +/- 0.04 g); format: organism-based; details: in vivo, 744 h
[9] = AUC (0 to 24 hrs) in […] model at 3 mg/kg, po qd measured on day 1 post dose; format: ADME, organism-based; set-up: dose 3 mg/kg, time < 24 hr, route oral; details: in vivo
Rattus norvegicus [10] = test: Effect on TNF gene expression in epididymal white adipose tissue of Zucker rat sub-chronic fa/fa prediabetic model at 10 mg/kg, po qd for 15 days by microarray analysis relative to control; format: functional
[11] = target: Oxysterols receptor LXR-beta (Homo sapiens, UniProt P55055); test: Antagonist activity at recombinant GST-tagged human LXRbeta LBD assessed as inhibition of TO901317-induced fluorescein-labeled coactivator peptide recruitment preincubated with enzyme followed by coactivator addition by LanthaScreen TR-FRET assay
Oxysterols receptor LXR-beta, sequence (P55055 whole entry, the tested form may be a part): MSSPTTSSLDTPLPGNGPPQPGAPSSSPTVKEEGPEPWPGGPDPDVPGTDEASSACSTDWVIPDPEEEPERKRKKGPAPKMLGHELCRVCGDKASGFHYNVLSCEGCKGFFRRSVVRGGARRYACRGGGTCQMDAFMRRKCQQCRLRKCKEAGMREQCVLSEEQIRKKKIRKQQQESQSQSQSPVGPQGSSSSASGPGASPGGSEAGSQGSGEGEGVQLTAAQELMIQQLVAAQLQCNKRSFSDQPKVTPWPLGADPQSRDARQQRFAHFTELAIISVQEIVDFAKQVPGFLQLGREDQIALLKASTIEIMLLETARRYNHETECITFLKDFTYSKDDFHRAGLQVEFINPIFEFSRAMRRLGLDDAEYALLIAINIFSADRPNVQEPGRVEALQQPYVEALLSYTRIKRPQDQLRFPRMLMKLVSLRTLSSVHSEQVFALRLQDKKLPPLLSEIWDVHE

Rattus norvegicus [12] = test: Toxicity in Zucker rat sub-chronic fa/fa prediabetic model assessed as increase in body weight at 10 mg/kg, po qd during 10 days study; format: organism-based; details: in vivo, 240 h
Rattus norvegicus [13] = test: Effect on MAOB gene expression in epididymal white adipose tissue of Zucker rat sub-chronic fa/fa prediabetic model at 10 mg/kg, po qd for 15 days by microarray analysis relative to control; format: functional
[14] = AUC (0 to 24 hrs) in ob/ob mouse at 18 mg/kg administered via oral gavage by LC-MS analysis; format: ADME, organism-based; set-up: dose 18 mg/kg, time < 24 hr, route oral; details: in vivo
Rattus norvegicus [15] = test: Toxicity in Zucker rat sub-chronic fa/fa prediabetic model assessed as body weight at 3 mg/kg, po qd for 29 days measured on day 29 post last dose (reference value: 533 +/- 10 g); format: organism-based; details: in vivo, 696 h
[16] = AUC (0 to 24 hrs) in […] model at 10 mg/kg, po qd measured on day 1 post dose; format: ADME, organism-based; set-up: dose 10 mg/kg, time < 24 hr, route oral; details: in vivo
Rattus norvegicus [17] = test: Effect on NDUFV3 gene expression in epididymal white adipose tissue of Zucker rat sub-chronic fa/fa prediabetic model at 10 mg/kg, po qd for 15 days by microarray analysis relative to control; format: functional
[18] = AUC (0 to 24 hrs) in Zucker rat sub-chronic fa/fa prediabetic model at 50 mg/kg, po qd for 26 days measured on day 26 post last dose; format: ADME, organism-based; set-up: dose 50 mg/kg, time < 24 hr, route oral; details: in vivo
Rattus norvegicus [19] = test: Effect on GBE1 gene expression in epididymal white adipose tissue of Zucker rat sub-chronic fa/fa prediabetic model at 10 mg/kg, po qd for 15 days by microarray analysis relative to control; format: functional
Rattus norvegicus [20] = test: Effect on SYNJ2 gene expression in epididymal white adipose tissue of Zucker rat sub-chronic fa/fa prediabetic model at 10 mg/kg, po qd for 15 days by microarray analysis relative to control; format: functional
Rattus norvegicus [21] = test: Effect on PCK1 gene expression in epididymal white adipose tissue of Zucker rat sub-chronic fa/fa prediabetic model at 10 mg/kg, po qd for 15 days by microarray analysis relative to control; format: functional
Rattus norvegicus [22] = test: Effect on NDUFA6 gene expression in epididymal white adipose tissue of Zucker rat sub-chronic fa/fa prediabetic model at 10 mg/kg, po qd for 15 days by microarray analysis relative to control; format: functional
[23] = Oral bioavailability in CD-1 mouse at 20 mg/kg administered via gavage by LC-MS analysis; format: ADME, organism-based; details: in vivo
[24] = Drug uptake in plasma of Zucker rat sub-chronic fa/fa prediabetic model at 12.5 mg/kg, po qd for 11 days; format: ADME, organism-based
Rattus norvegicus [25] = test: Toxicity in Zucker rat sub-chronic fa/fa prediabetic model assessed as serum creatinine level at 3 mg/kg, po qd for 31 days measured on day 32 (reference value: 0.71 +/- 0.07 mg/dl); format: organism-based; details: in vivo, 744 h
Rattus norvegicus [26] = test: Toxicity in […] chronic ob/ob model assessed as serum creatinine level at 3 mg/kg, po qd for 31 days measured on day 32 (reference value: 0.55 +/- 0.018 mg/dl); format: organism-based; details: in vivo, 744 h
Rattus norvegicus [27] = test: Toxicity in […] chronic ob/ob model assessed as serum triglyceride level at 50 mg/kg, po qd for 31 days measured on day 32 (reference value: 329 +/- 36 mg/dl); format: organism-based; details: in vivo, 744 h
Rattus norvegicus [28] = test: Effect on RRAS2 gene expression in epididymal white adipose tissue of Zucker rat sub-chronic fa/fa prediabetic model at 10 mg/kg, po qd for 15 days by microarray analysis relative to control; format: functional
[29] = target: Peroxisome proliferator-activated receptor alpha (Homo sapiens, UniProt Q07869); test: Agonist activity at recombinant GST-tagged human PPARalpha LBD assessed as fluorescein-labeled coactivator peptide recruitment preincubated with enzyme followed by coactivator addition by LanthaScreen TR-FRET assay
Peroxisome proliferator-activated receptor alpha, sequence (Q07869 whole entry, the tested form may be a part): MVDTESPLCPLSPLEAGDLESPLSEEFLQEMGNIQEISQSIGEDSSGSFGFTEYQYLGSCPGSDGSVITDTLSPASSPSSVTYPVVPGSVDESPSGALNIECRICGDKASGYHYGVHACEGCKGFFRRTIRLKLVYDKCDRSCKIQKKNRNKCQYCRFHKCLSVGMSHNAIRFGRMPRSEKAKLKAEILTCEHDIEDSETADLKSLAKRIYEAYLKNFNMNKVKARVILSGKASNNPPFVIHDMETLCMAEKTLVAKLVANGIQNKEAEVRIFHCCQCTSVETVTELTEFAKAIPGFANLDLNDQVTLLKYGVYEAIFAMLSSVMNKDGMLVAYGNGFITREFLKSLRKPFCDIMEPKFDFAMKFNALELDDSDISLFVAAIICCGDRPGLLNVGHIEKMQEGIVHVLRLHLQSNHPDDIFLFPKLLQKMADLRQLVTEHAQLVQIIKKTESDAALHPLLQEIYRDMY

Rattus norvegicus [30] = test: Antidiabetic activity in […] chronic ob/ob model assessed as increase in plasma adiponectin level at 3 mg/kg, po qd for 31 days measured on day 32 by ELISA relative to control; format: functional
Rattus norvegicus [31] = test: Toxicity in […] chronic ob/ob model assessed as food intake at 50 mg/kg, po qd for 28 days measured on day 1 to 28 during compound dosing (reference value: 170.6 +/- 3 g); format: organism-based; details: in vivo, 672 h
Rattus norvegicus [32] = test: Effect on BAD gene expression in epididymal white adipose tissue of Zucker rat sub-chronic fa/fa prediabetic model at 10 mg/kg, po qd for 15 days by microarray analysis relative to control; format: functional
Rattus norvegicus [33] = test: Effect on MLYCD gene expression in epididymal white adipose tissue of Zucker rat sub-chronic fa/fa prediabetic model at 10 mg/kg, po qd for 15 days by microarray analysis relative to control; format: functional

`CN1CC[C@@H](N2C(=O)S/C(=C\c3ccc4c(cnn4Cc4ccc(Cl)cc4C(F)(F)F)c3)C2=O)[C@H](F)C1` showed a clearance [1] of 10 mL/min/kg, an Activity (Rattus norvegicus [2]) of -68% and an Activity (Rattus norvegicus [3]) of 28.7 mg/dL. For the same molecule, the Activity (Rattus norvegicus [4]) was 198 mg/dL, the “fold change (FC)” value (Rattus norvegicus [5]) was 1.349 and the “fold change (FC)” value (Rattus norvegicus [6]) was 1.339. For the same molecule, the Activity (Rattus norvegicus [7]) was 172 U/L, the Activity (Rattus norvegicus [8]) was 1.11 g and the AUC(0-t) at 24 h [9] was 1400 ng·h/mL. The “fold change (FC)” value (Rattus norvegicus [10]) was -1.24, the IC50 [11] was over 10 µM and the Activity (Rattus norvegicus [12]) was “Non-Toxic”. For the same molecule, the “fold change (FC)” value (Rattus norvegicus [13]) was -1.452, the AUC(0-t) at 24 h [14] was 6230 ng·h/mL and the Activity (Rattus norvegicus [15]) was 561 g. For the same molecule, the AUC(0-t) at 24 h [16] was 3940 ng·h/mL, the “fold change (FC)” value (Rattus norvegicus [17]) was 1.257 and the AUC at 24 h [18] was 85900 ng·h/mL. For the same molecule, the “fold change (FC)” value (Rattus norvegicus [19]) was 1.79, the “fold change (FC)” value (Rattus norvegicus [20]) was -1.663 and the “fold change (FC)” value (Rattus norvegicus [21]) was 1.391. The “fold change (FC)” value (Rattus norvegicus [22]) was 1.277, the bioavailability [23] was 52% and the concentration at 264 h [24] was 814 ng/mL. The Activity (Rattus norvegicus [25]) was 0.56 mg/dL, the Activity (Rattus norvegicus [26]) was 0.5 mg/dL and the Activity (Rattus norvegicus [27]) was 81 mg/dL. For the same molecule, the “fold change (FC)” value (Rattus norvegicus [28]) was 1.235, the EC50 [29] was over 10 µM and the “fold change (FC)” value (Rattus norvegicus [30]) was 1.4. For the same molecule, the Activity (Rattus norvegicus [31]) was 152.4 g, the “fold change (FC)” value (Rattus norvegicus [32]) was -1.216 and the “fold change (FC)” value (Rattus norvegicus [33]) was 1.608.
